Data on nine compounds can be found in US11691992B2 (Anacor Pharmaceuticals, Inc., priority 2017, dated 2023).

Holding throughout (format): cell-based
Experiment [1] deals with T. cruzi Tulahuen strain C2C4 containing the β-galactosidase (Lac Z) gene in rat skeletal myoblasts (L-6 cells). Briefly: Trypanosoma cruzi C2C4 screening assay. Particulars: L6, 96 h, read-out: SCYNEXIS IC50: I Org. Growth T. cruzi Tulahuen C2C4 Lac Z, 4 d [uM]. The protocol:
Example 113: Trypanosoma cruzi C2C4 Screening Assay Procedure
Rat skeletal myoblasts (L-6 cells) were seeded in 96-well microtiter plates at 2×10^3 cells/well in 100 μL RPMI 1640 medium with 10% FBS and 2 mM L-glutamine. After 24 h the medium was removed and replaced by 100 μL per well containing 5×10^3 trypomastigote forms of T. cruzi Tulahuen strain C2C4 containing the β-galactosidase (Lac Z) gene (Buckner, et al., Antimicrobial Agents and Chemotherapy, 40: 2592-2597 (1996)). After 48 h the medium was removed from the wells and replaced by 100 μL fresh medium with or without a serial drug dilution of the seven 3-fold dilution steps covering a range from 90 to 0.123 μg/mL. After 96 h of incubation the plates were inspected under an inverted microscope to assure growth of the controls and sterility. The substrate (50 μL) chlorophenol red-β-D-galactopyranoside (CPRG, Roche Diagnostics, Ltd) in 0.25% Nonidet P-40/PBS was added to all wells and a color reaction developed within 2-6 h which was read photometrically at 540 nm. Data were transferred into the graphic program Softmax Pro (Molecular Devices), which calculated IC50 values.

The subject of experiment [2] is bloodstream-form trypanosome T. brucei brucei 427 strain. Description: Trypanosoma brucei brucei high-throughput screening assay (resazurin). Conditions: 72 h, read-out: IC50: I Org. Growth T. brucei brucei SBRI 427, 3 d [uM]. The protocol: Example 105. Trypanosoma brucei brucei High-Throughput Screening Assay Procedure
All experiments were conducted with the bloodstream-form trypanosome T. brucei brucei 427 strain obtained from Seattle Biomedical Research Institute (Seattle, Wash.). Parasites were cultured in T-25 vented cap flasks and kept in humidified incubators at 37° C. and 5% CO2. The parasite culture media was complete HMI-9 medium containing 10% FBS, 10% Serum Plus medium and penicillin/streptomycin. To ensure log growth phase, trypanosomes were sub-cultured at appropriate dilutions every 2-3 days. Approximately 50 microliters of log phase cultures were diluted 1:10 in HMI-9 and 10 μL of the diluted culture was removed and counted using a hemocytometer to determine parasite concentration. Parasites were diluted by addition of an appropriate volume of HMI-9 to achieve a final parasite concentration of 2×10^5/mL. Compounds of the invention to be tested were serially diluted in DMSO and 0.5 μL added to 49.5 μL HMI-9 in triplicate 96-well plates using a Biomek NX liquid handler. Parasites from the diluted stock were added to each well (50 μL) using a Multidrop 384 dispenser to give a final concentration of 1.0×10^5/ml parasites in […] for DMSO. Trypanosomes were incubated with compounds for 72 hrs at 37° C. with 5% CO2. Resazurin (20 μL of 12.5 mg/ml stock) from Sigma-Aldrich was added to each well and plates were incubated for an additional 2-4 hrs. Assay plates were read using an EnVision plate reader at an excitation wavelength of 544 nm and emission of 590 nm. Triplicate data points were averaged to generate sigmoidal dose response curve and determine IC50 values using XLfit curve fitting software from IDBS (Guildford, UK).
(The colour change of resazurin is a common sign of viable cells or microbes.)

Experiment [3] relates to luciferase-expressing L. major parasites developing intracellularly inside RAW 264.7 macrophages. Description: Leishmania major intracellular amastigote assay in RAW 264.7 macrophages (luciferase). Particulars: RAW264.7, 96 hours, read-out: IC50: I Org. intracellular amastigote Growth L. major, 4 d. An outline of the steps:
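RAW 264.7 macrophages infected overnight with luciferase-expressing L. major promastigotes, washed of extracellular parasites, then exposed to two-fold compound dilutions (final 0.5-10,000 ng/ml) for 96 h at 37° C, 5% CO2. Luciferin luminescence after 30 min; IC50 by sigmoidal variable-slope regression.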

Experiment [4] concerns TdTomato-modified T. cruzi (CL strain) in Vero cells. Description: In vitro IC50 measurement of T. cruzi amastigote killing using TdTomato-modified T. cruzi (CL strain). Particulars: Trypanosoma cruzi, 72 h, fluorescence, read-out: IC50: I Org. amastigote Growth T. cruzi CL TdTomato, 3 d. In short, it runs like this:
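Vero cells were infected with tdTomato-expressing CL-strain parasites and dosed at 5 uM–5 nM. Fluorescence (ex 544/em 612 nm) was read at day 0 and again after 72 h at 37 °C, with day 0 values subtracted. IC50 and IC90 came from nonlinear regression.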

In experiment [5] the test system is bloodstream forms of T. b. rhodesiense STIB 900. Description: T. brucei rhodesiense STIB 900 growth inhibition assay. Particulars: Trypanosoma brucei; bloodstream forms, 72 h, Alamar Blue; protocol of Example 110; read-out: IC50: I Org. Growth T. brucei rhodesiense STIB 900, 3 d. An outline of the steps:
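Bloodstream-form STIB 900 (10^4/well) were cultured in supplemented MEM with 15% horse serum and compound (90 to 0.123 μg/ml, 3-fold steps) for 72 h at 37 °C, 5% CO2. Viability was read by Alamar Blue fluorescence (ex 536/em 588 nm) after a further 2-4 h.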

Experiment [6] deals with Trypanosoma brucei rhodesiense STIB 900 strain. Briefly: Trypanosoma brucei rhodesiense STIB 900 screening assay. Conditions: STIB 900 bloodstream forms, 72 h, Alamar Blue, protocol of Example 114, read-out: Swiss TPH T b rhodesiense IC50. The protocol: Example 114. Trypanosoma brucei rhodesiense STIB 900 Screening Assay Procedure
The Trypanosoma brucei rhodesiense STIB 900 strain was isolated in 1982 from a human patient in Tanzania and after several mouse passages cloned and adapted to axenic culture conditions (Baltz, et al., EMBO Journal 4: 1273-1277 (1985); Thuita, et al., Acta Tropica 108: 6-10 (2008)). Minimum Essential Medium (50 μL) supplemented with 25 mM HEPES, 1 g/L additional glucose, 1% MEM non-essential amino acids (100×), 0.2 mM 2-mercaptoethanol, 1 mM Na-pyruvate and 15% heat inactivated horse serum was added to each well of a 96-well microtiter plate. Serial drug dilutions of seven 3-fold steps covering a range from 90 to 0.123 μg/mL were prepared. Then 10^4 bloodstream forms of T. b. rhodesiense STIB 900 in 50 μL was added to each well and the plate incubated at 37° C. under a 5% CO2 atmosphere for 72 h. 10 μL Alamar Blue (resazurin, 12.5 mg in 100 mL double-distilled water) was then added to each well and incubation continued for a further 2-4 h (Raz, et al., Acta Tropica 68: 139-47 (1997)). Then the plates were read with a Spectramax Gemini XS microplate fluorometer (Molecular Devices Corporation, Sunnyvale, Calif., USA) using an excitation wavelength of 536 nm and an emission wavelength of 588 nm. Data were transferred into the graphic program Softmax Pro (Molecular Devices), which calculated IC50 values.

Experiment [7] concerns STIB719/ILRAD560 T. vivax (drug sensitive) strain. Briefly: Ex vivo Alamar Blue 48 h drug sensitivity assay for T. vivax. Conditions: Trypanosoma vivax, ex vivo bloodstream forms from mouse, 45 hrs + 3 hrs resazurin, read-out: IC50: I Hypoxanthine Incorporation T. vivax STIB 719/ILRA D 560, 2 d. The protocol: Example 109. Ex Vivo Alamar Blue 48 h Drug Sensitivity Assay for T. vivax
[…] Test compounds were prepared as 10 mg/mL DMSO stocks for each assay run. Compounds were assayed in at least three separate, independent test runs and an 11-point dilution curve was used to determine the IC50 values. Bloodstream form trypanosomes were propagated and harvested from a highly parasitemic mouse (via cardiac puncture) and were incubated with test compounds for 45 hrs at 37° C. in a humidified atmosphere containing 5% CO2, supported in HMI media containing 20% bovine serum. […] Plates were then read using a fluorescent plate reader (Spectramax, Gemini XS, Bucher Biotec, Basel, Switzerland) using an excitation wavelength of 536 nm and an emission wavelength of 588 nm. Data points were averaged to generate sigmoidal dose-response curves and IC50 values were determined using Softmax Pro 5.2 software.

Experiment [8] relates to L. infantum MHOM/MA(BE)/67 amastigotes in primary peritoneal mouse macrophages. Description: Leishmania infantum intracellular amastigote assay in mouse macrophages. Conditions: Macrophage, 120 h, amastigotes in primary peritoneal mouse macrophages, 5 d, Giemsa staining, read-out: Inhibition of Organism Growth in Leishmania infantum MHOM/MA/BE/67, 5 d. An outline of the steps: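 Amastigotes harvested from infected hamster spleen infected primary peritoneal mouse macrophages (5×10^5 amastigotes/well, 2 h, 37 °C). Compounds then present 5 d at 37 °C, 5% CO2. Parasite burden counted by microscopy after Giemsa staining, as % of untreated controls; IC50 from sigmoidal variable-slope fit.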

Experiment [9] deals with IL3000 T. congolense (drug sensitive) strain. Briefly: In vitro Alamar Blue 72 h drug sensitivity assay for T. congolense. Conditions: Trypanosoma congolense; bloodstream form, 69 h + 3 h resazurin, 34° C.; classes A-C; read-out: IC50: I Org. Growth T. congolense IL-3000, 3 d. In short, it runs like this: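 Bloodstream-form trypanosomes in HMI medium with 20% bovine serum, exposed to compound for 69 h at 34 °C, 5% CO2, then resazurin for 3 h more. Fluorescence read at 536/588 nm. IC50 from 11-point sigmoidal dose-response curves, at least three independent runs.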

With `O=C(Nc1ccc2c(c1)B(O)OC2)c1cn(-c2ccccc2)nn1` [Example 66, N-(1-hydroxy-1,3-dihydrobenzo[c][1,2]oxaborol-6-yl)-1-phenyl-1H-1,2,3-triazole-4-carboxamide], the IC50 in experiment [1] was 0.06 to 0.1 µM; in [2] it was 0.075 to 0.15 µM; in experiment [3], at most 1000 nM; in [4], under 600 nM.
Consider `Cc1nn(-c2ccccc2)nc1C(=O)Nc1ccc2c(c1)B(O)OC2` [Example 72, N-(1-hydroxy-1,3-dihydrobenzo[c][1,2]oxaborol-6-yl)-5-methyl-2-phenyl-2H-1,2,3-triazole-4-carboxamide], for which the IC50 is 100 to 300 nM in [5]; under 100 nM in experiment [6]; 201 to 500 nM in experiment [7]; 3000 to 19900 nM in experiment [8]; under 100 nM in experiment [9].
As for `Cc1c(C(=O)Nc2ccc3c(c2)B(O)OC3)nnn1-c1ncccc1Cl` [Example 82, 1-(3-Chloropyridin-2-yl)-N-(1-hydroxy-1,3-dihydrobenzo[c][1,2]oxaborol-6-yl)-5-methyl-1H-1,2,3-triazole-4-carboxamide], the IC50 is 100 to 300 nM in experiment [5]; 100 to 250 nM in experiment [6]; under 200 nM in experiment [7]; 3000 to 19900 nM in experiment [8]; under 100 nM in [9].
For the compound `Cc1c(C(=O)Nc2ccc3c(c2)B(O)OC3)nnn1-c1ccc(Cl)cn1` [Example 83, 1-(5-Chloropyridin-2-yl)-N-(1-hydroxy-1,3-dihydrobenzo[c][1,2]oxaborol-6-yl)-5-methyl-1H-1,2,3-triazole-4-carboxamide], the IC50 in [5] was under 100 nM; in experiment [6], under 100 nM; in [7], 510 to 10000 nM; in experiment [8], under 3000 nM; in [9], under 100 nM.
Regarding `Cc1c(C(=O)Nc2ccc3c(c2)B(O)OC3(C)C)nnn1-c1ccccn1` [Example 85, N-(1-hydroxy-3,3-dimethyl-1,3-dihydrobenzo[c][1,2]oxaborol-6-yl)-5-methyl-1-(pyridin-2-yl)-1H-1,2,3-triazole-4-carboxamide], the IC50 in [5] fell in the range of 310 to 10000 nM; in experiment [6], 260 to 2000 nM; in experiment [7], 510 to 10000 nM; in experiment [8] it was 20000 to 100000 nM; in experiment [9], 310 to 100000 nM.
`Cc1c(C(=O)Nc2ccc3c(c2)B(O)OC3)nnn1-c1ccc(F)cc1` [Example 86, 1-(4-fluorophenyl)-N-(1-hydroxy-1,3-dihydrobenzo[c][1,2]oxaborol-6-yl)-5-methyl-1H-1,2,3-triazole-4-carboxamide]: the results for the IC50 in [1], in experiment [2] and in [4] were 0.11 to 1 µM, 0.075 to 0.15 µM and 600 to 1000 nM, respectively.
As to `Cc1c(C(=O)Nc2ccc3c(c2)B(O)OC3)nnn1-c1cccc(C(F)(F)F)c1` [Example 87, N-(1-hydroxy-1,3-dihydrobenzo[c][1,2]oxaborol-6-yl)-5-methyl-1-(3-(trifluoromethyl)phenyl)-1H-1,2,3-triazole-4-carboxamide], the IC50 in experiment [5] fell in the range of 100 to 300 nM; in [6] it was 100 to 250 nM; in experiment [7], 510 to 10000 nM; in experiment [8] it was 3000 to 19900 nM; in experiment [9] it was 100 to 300 nM.
`COc1ccccc1-n1nnc(C(=O)Nc2ccc3c(c2)B(O)OC3)c1C` [Example 88, N-(1-hydroxy-1,3-dihydrobenzo[c][1,2]oxaborol-6-yl)-1-(2-methoxyphenyl)-5-methyl-1H-1,2,3-triazole-4-carboxamide]: the IC50 in [5] was 100 to 300 nM; in experiment [6] it was 100 to 250 nM; in experiment [7], 201 to 500 nM; in experiment [8] it was under 3000 nM; in experiment [9] it was under 100 nM.
As to `Cc1c(C(=O)Nc2ccc3c(c2)B(O)OC3(C)C)nnn1-c1ccccc1` [Example 92, N-(1-hydroxy-3,3-dimethyl-1,3-dihydrobenzo[c][1,2]oxaborol-6-yl)-5-methyl-1-phenyl-1H-1,2,3-triazole-4-carboxamide], the IC50 lay within 310 to 10000 nM in [5]; 260 to 2000 nM in [6]; 510 to 10000 nM in experiment [7]; 20000 to 100000 nM in [8]; 310 to 100000 nM in [9].
